A short description of data set [1]: Equilibration of Forms 1 and 2, singularly and as mixtures, in MEK and THF alone and with 5% water. Format: physicochemical. As to conditions: 5-10 °C, both equilibration temperatures. The source says:
The influence of the initial polymorphic composition on the fate of samples was investigated by equilibration of the either the single polymorphs or an equal mixture of both in anhydrous MEK and THF as well as in the same solvents doped with 5% water.
The results obtained (Table 13) reveal that in anhydrous media the two polymorphs retain their structural integrity, if present singularly (Table 13, Entries 1, 2, 4 and 5). […] (Table 13, Entry 4) which may be attributable to the presence of traces of moisture in a highly hygroscopic solvent.
The results observed when 5% water was admixed to the two solvents indicate that the predominance of the two forms reversed under these conditions, taking kinetic factors into account. In aqueous MEK (5% water) the single polymorphs were again unchanged for the duration of the experiment (Table 13, Entries 7 and 8). In contrast, the binary polymorphic mixture converted into Form 1 in this medium (Table 13, Entry 9). In aqueous THF (5% water) the dominance of Form 1 as the most preferred polymorph was especially evident. In this environment the suspension of Form 1 remained unchanged (Table 13, Entry 10), consistent with the outcome observed for aq MEK under the same conditions.
However, in THF doped with 5% water, both the suspension comprising the binary mixture, as well as that composed of the Form 2 polymorph alone, were transformed into suspensions containing only Form 1 (Table 13, Entries 11 and 12).

In data set [2] the target is T1, Aspergillus fumigatus sterol 14α-demethylase CYP51B (Aspergillus fumigatus, UniProt E9QY26).
T1 sequence (E9QY26 1-524): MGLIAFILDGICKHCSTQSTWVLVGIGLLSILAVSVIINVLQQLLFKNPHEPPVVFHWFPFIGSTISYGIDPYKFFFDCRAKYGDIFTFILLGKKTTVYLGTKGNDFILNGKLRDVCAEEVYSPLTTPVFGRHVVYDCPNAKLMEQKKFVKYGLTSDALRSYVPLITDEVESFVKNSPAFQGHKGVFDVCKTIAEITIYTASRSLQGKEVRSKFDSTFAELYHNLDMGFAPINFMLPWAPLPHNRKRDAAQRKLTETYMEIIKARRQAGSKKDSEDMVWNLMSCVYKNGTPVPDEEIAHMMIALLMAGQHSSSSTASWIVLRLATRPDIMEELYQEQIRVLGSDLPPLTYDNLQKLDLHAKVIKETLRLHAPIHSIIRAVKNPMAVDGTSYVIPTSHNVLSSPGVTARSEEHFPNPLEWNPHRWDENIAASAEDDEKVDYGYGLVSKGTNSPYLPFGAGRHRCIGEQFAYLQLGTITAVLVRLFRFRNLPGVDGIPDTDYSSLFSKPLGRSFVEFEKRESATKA
The conditions noted are these: cited from earlier work.

The subject of data set [3] is Aspergillus fumigatus. As to conditions: topical Compound I in combination with a known systemic triazole agent; in vitro human alveolus bilayer model; cited from earlier work.
The nature of data set [4]: Solubility of Compound I in MEK/water mixtures. As to conditions: 25 °C, organic solvent or mixture, thermodynamic from solid. Format: physicochemical. As for the experimental part: (Table 12). It was observed that Form 2 integrity was maintained for at least 24 hours at the lower temperature until the water content exceeded 6%, despite an increase in solubility of Compound I from 19 to 30 mg/ml (data not shown).

For data set [5], the system named is Aspergillus fumigatus. The conditions noted are these: topical Compound I in combination with a known systemic triazole agent; lungs of neutropenic, immunocompromised mice; cited from earlier work.
A short description of data set [6]: Solubility of Compound I in water. Format: physicochemical.
In data set [7] the test system is Aspergillus fumigatus. As to conditions: intranasal dosing, immunocompromised mice, repeat dosing; cited from earlier work.
For data set [8], the target named is T2, Aspergillus fumigatus sterol 14α-demethylase CYP51A (Aspergillus fumigatus, UniProt Q4WNT5).
T2 sequence (Q4WNT5 1-515): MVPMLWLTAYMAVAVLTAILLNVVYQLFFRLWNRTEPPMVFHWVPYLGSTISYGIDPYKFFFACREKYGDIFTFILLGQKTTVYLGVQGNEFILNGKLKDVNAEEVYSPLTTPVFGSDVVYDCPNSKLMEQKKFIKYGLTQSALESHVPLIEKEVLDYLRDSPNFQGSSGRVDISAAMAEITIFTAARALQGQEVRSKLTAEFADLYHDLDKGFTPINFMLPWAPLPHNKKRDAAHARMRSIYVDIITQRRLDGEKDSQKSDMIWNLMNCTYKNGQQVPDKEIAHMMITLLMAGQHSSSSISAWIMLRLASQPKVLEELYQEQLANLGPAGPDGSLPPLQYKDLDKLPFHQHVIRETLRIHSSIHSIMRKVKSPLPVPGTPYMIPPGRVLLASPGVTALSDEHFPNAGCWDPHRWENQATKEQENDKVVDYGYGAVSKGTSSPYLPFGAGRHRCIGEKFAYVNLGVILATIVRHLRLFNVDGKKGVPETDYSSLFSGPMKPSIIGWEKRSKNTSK
As to conditions: cited from earlier work.

The next data set has as its system Candida auris isolates. The conditions noted are these: isolates collected globally; cited from earlier work.
A short description of data set [9]: Cross-seeding experiments of Forms 1 and 2 at 5, 25 and 50 °C, XRPD. Format: physicochemical. As to conditions: 96 hr. The source says: (§1) X-Ray powder diffraction patterns were collected on a PANalytical diffractometer using Cu Kα radiation (45 kV, 40 mA), θ-θ goniometer, focusing mirror, divergence slit (½″), soller slits at both incident and divergent beam (4 mm) and a PIXcel detector. The software used for data collection was X′Pert Data Collector, version 2.2f and the data was presented using X′Pert Data Viewer, version 1.2d. XRPD patterns were acquired under ambient conditions via a transmission foil sample stage (polyimide—Kapton, 12.7 μm thickness film) under ambient conditions using a PANalytical X′Pert PRO. The data collection range was 2.994-35°2θ with a continuous scan speed of 0.202 s^−1.
A mixture of Forms 1 and 2 (50% w/w) was prepared and a sample of the mixture (20 mg) was then suspended in a solvent system (50 vol, 1.0 mL) and shaken at different temperatures for 96 hr. The solids were filtered, air dried and analysed by XRPD. The results obtained (Table 8) reveal that, in all but one of the systems investigated (Entries 10-12), the mixture of polymorphic forms had turned over into Form 2 when maintained at both RT and 50° C. The transformation in propyl acetate was seen to be especially facile as Form 2 was also isolated from the suspension which had been maintained at 5° C. (Entry 1).

Data set [10] is described as follows: Maturation of 1:1 suspensions of Forms 1 and 2 at varying temperatures, XRPD analysis. Format: physicochemical.
Description: It has been determined that the crystalline states, referred to herein as Form 1 and Form 2, constitute an enantiotropic polymorphic pair. This property arises from a temperature dependency of their relative thermodynamic stabilities, whereby one of the polymorphs is the most thermodynamically stable manifestation of the material up to a characteristic (empirically determined) temperature; above which their order of stability is inverted. In the present instance suspensions comprising equal amounts of the two polymorphs were matured, in one of six different solvents, at 50° C., 70° C. and 135° C. (Table 6). In all experiments conducted at both 50° C. and 70° C. the 1:1 mixtures converted into suspensions containing only the Form 2 polymorph. In contrast, all of the mixtures maintained at a temperature of 135° C. were transformed into Form 1.
as §1
A mixture of equal amounts Forms 1 and 2 (100 mg) was charged to crystallisation tubes followed by the selected solvent. The suspensions were heated to the temperatures indicated (Table 6) for 72 hr, during which time samples were taken at 24 hr intervals Solids were isolated at the maturation temperature by filtration and then dried in vacuo at 45° C. for 20 hr. In two cases (Table 6, Entries 1 and 2) suspensions were retained at 135° C. which comprised Form I from the 24 hr time point to the conclusion of the experiment. In the remaining cases (Table 6, Entries 4-6) solutions had formed at 72 hr and solids were recovered by slight cooling, all of which were determined to be Form 1. Those maturated at lower temperatures all gave Form 2 within 24 hr.

This is an account of results in patent US12491182B2, “Polymorphs of triazole antifungal compound PC945” (Pulmocide Limited, priority 2019, dated 2025).

≈ marks a conversion by molar mass, not a printed value. Where two headings read alike, the source gives them in different places. Marks after values point to notes of the source that are not given here.

Take `[2H]c1c([2H])c(NC(=O)c2ccc(N3CCN(c4ccc(OC[C@@H]5CO[C@@](Cn6cncn6)(c6ccc(F)cc6F)C5)c(C)c4)CC3)cc2)c([2H])c([2H])c1F` [Compound 2, 4-(4-(4-(((3R,5R)-5-((1H-1,2,4-triazol-1-yl)methyl)-5-(2,4-difluorophenyl)tetrahydrofuran-3-yl)methoxy)-3-methylphenyl)piperazin-1-yl)-N-(4-fluorophenyl-2,3,5,6-d4)benzamide, reference compound]: the “Form by XRPD Post Equilibration” value in data set [1] (MEK (anhydrous)) came out at 2; in data set [1] (MEK/5% Water), 2; in data set [1] (THF (anhydrous), Form 1 input: some evidence of Form 2 at 10 °C), 2; in [1] (THF/5% Water), 1.

`Cc1cc(N2CCN(c3ccc(C(=O)Nc4ccc(F)cc4)cc3)CC2)ccc1OC[C@@H]1CO[C@@](Cn2cncn2)(c2ccc(F)cc2F)C1` [Compound I, 4-(4-(4-(((3R,5R)-5-((1H-1,2,4-triazol-1-yl)methyl)-5-(2,4-difluorophenyl)tetrahydrofuran-3-yl)methoxy)-3-methylphenyl)piperazin-1-yl)-N-(4-fluorophenyl)benzamide]: in data set [2], the “inhibition of sterol 14α-demethylase CYP51B” value is on record as “potent inhibitor”. The “anti-fungal effect of combination” value in the data set on Aspergillus fumigatus [3] and with Aspergillus fumigatus [5] was “synergistic anti-fungal effects” in each case. The solubility in [4] (MEK with 8% water by volume) was 23 mg/mL (≈ 33.7 mM); in data set [4] (MEK with water content rising up to 6% by volume, 25 °C (data not shown)), 19 to 30 mg/mL (≈ 27.8 to 43.9 mM). For the same molecule, the solubility in water result in [6] is listed as “extremely low solubility”. Moreover, in the data set with Aspergillus fumigatus [7], the “anti-fungal effects by biomarker analysis” value was “accumulated upon repeat dosing and were persistent”. Besides, in [8], the “inhibition of sterol 14α-demethylase CYP51A” value is given as “potent inhibitor”. Moreover, the “inhibition of Candida auris isolates, potency compared with azoles” value with Candida auris isolates is “more potent inhibitor than posaconazole, voriconazole and fluconazole”.

`Cc1cc(N2CCN(c3ccc(C(=O)Nc4ccc(F)cc4)cc3)CC2)ccc1OC[C@@H]1CO[C@@](Cn2cncn2)(c2ccc(F)cc2F)C1` [Forms 1 and 2]: the “Polymorphic Form by XRPD” value was 2 in [9] (PrOAc, 5 °C); 2 in [9] (PrOAc, 25 °C); 2 in data set [9] (PrOAc, 50 °C); 2 in data set [9] (TBME, 25 °C); 2 in data set [9] (TBME, 50 °C); 2 in data set [9] (Toluene, 25 °C). The “Polymorphic Form by XRPD” value in data set [9] (Toluene, 50 °C) is reported as 2. The “Form by XRPD Post Equilibration” value worked out at 2 in data set [1] (MEK (anhydrous), listed as 1 + 2); 1 in data set [1] (MEK/5% Water); 2 in data set [1] (THF (anhydrous), Form 1 input: some evidence of Form 2 at 10 °C, listed as 1 + 2); 1 in data set [1] (THF/5% Water). The “Polymorph obtained at temp indicated” value in data set [10] (decalin, 50 °C, XRPD after 72 hr) is given as 2; in data set [10] (decalin, 70 °C, XRPD after 72 hr) it was 2; in data set [10] (decalin, 135 °C, 72 hr, dissolution occurred, solid obtained on slight cooling) it was 1^b; in data set [10] (diphenyl ether, 50 °C, XRPD after 72 hr), 2; in data set [10] (diphenyl ether, 70 °C, XRPD after 72 hr) it was 2; in data set [10] (diphenyl ether, 135 °C, 72 hr, dissolution occurred, solid obtained on slight cooling) it was 1^b. Further, the “Polymorph obtained at temp indicated” value in [10] (heptanol, 50 °C, XRPD after 72 hr) is recorded as 2; in data set [10] (heptanol, 70 °C, XRPD after 72 hr) it was 2; in [10] (heptanol, 135 °C, 72 hr, dissolution occurred, solid obtained on slight cooling) it was 1^b; in data set [10] (mesitylene, 50 °C, XRPD after 72 hr), 2; in data set [10] (mesitylene, 70 °C, XRPD after 72 hr), 2; in data set [10] (mesitylene, 135 °C, XRPD after 72 hr) it was 1. Besides, the “Polymorph obtained at temp indicated” value in [10] (p-cymene, 50 °C, XRPD after 72 hr) is listed as 2; in data set [10] (p-cymene, 70 °C, XRPD after 72 hr), 2; in [10] (p-cymene, 135 °C, 72 hr, dissolution occurred, solid obtained on slight cooling) it was 1^b; in [10] (xylenes, 50 °C, XRPD after 72 hr) it was 2; in data set [10] (xylenes, 70 °C, XRPD after 72 hr) it was 2; in [10] (xylenes, 135 °C, XRPD after 72 hr) it was 1. The “enantiotropic transition point (temperature at which stability inverts)” value in [10] (from maturation of 1:1 mixtures at 50, 70 and 135 °C) is 70-135 °C.

Usually solubility stands for the dissolved amount per volume that the medium holds.
